Laboratory results published in patent publication US10688088B2 (priority 2015, dated 2020).
Read-outs that look alike come from different tables or passages of the source.

Tests used:
Type in all cases: cell-based, Mycobacterium tuberculosis
[1] = tested on: M tuberculosis T3609, resistant to ofloxacin (OFX) and streptomycin; parameters: MIC 2: MIC of the substance tested in combination / MIC 1: MIC of the substance tested alone: unit not given beside the values; conditions: for MIC 2: MIC of the substance tested in combination / MIC 1: MIC of the substance tested alone: strain T3609
[2] = tested on: M. tuberculosis T113, resistant to isoniazid (INH), rifampicin (RIF), ethambutol (ETB) and ofloxacin (OFX); parameters: MIC 2: MIC of the substance tested in combination / MIC 1: MIC of the substance tested alone: unit not given beside the values; conditions: for MIC 2: MIC of the substance tested in combination / MIC 1: MIC of the substance tested alone: strain T113
[3] = tested on: M. tuberculosis; conditions: all the strains (H37Rv, T3609, T113)

O=C(O)c1cn(C2CC2)c2cc(N3CCNCC3)c(F)cc2c1=O [CPX, ciprofloxacin]
MIC 2: MIC of the substance tested in combination ([1]; combination MEF + CPX): 3.12
MIC 1: MIC of the substance tested alone [1]: 5.00
MIC 2: MIC of the substance tested in combination ([2]; combination MEF + CPX): 0.31
MIC 1: MIC of the substance tested alone [2]: 0.62

CC[C@@H](CO)NCCN[C@@H](CC)CO [ETB, ethambutol]
MIC 2: MIC of the substance tested in combination ([2]; combination MFL + ETB): 12.5
MIC 1: MIC of the substance tested alone [2]: 25.0

COc1c(N2CCNC(C)C2)c(F)cc2c(=O)c(C(=O)O)cn(C3CC3)c12 (stereo not drawn) [GAT, gatifloxacin]
MIC 2: MIC of the substance tested in combination ([1]; combination MFL + GAT): 0.31
MIC 1: MIC of the substance tested alone [1]: 0.62
MIC 2: MIC of the substance tested in combination ([2]; combination MFL + GAT): 0.15
MIC 1: MIC of the substance tested alone [2]: 0.12

NNC(=O)c1ccncc1 [INH, isoniazid]
MIC 2: MIC of the substance tested in combination ([1]; combination MFL + INH): 0.015
MIC 1: MIC of the substance tested alone [1]: 0.5
MIC 2: MIC of the substance tested in combination ([2]; combination MFL + INH): 3.12
MIC 1: MIC of the substance tested alone [2]: 6.25

C[C@H]1COc2c(N3CCN(C)CC3)c(F)cc3c(=O)c(C(=O)O)cn1c23 [LVX, levofloxacin]
MIC 2: MIC of the substance tested in combination ([1]; combination MEF + LVX): 2.50
MIC 1: MIC of the substance tested alone [1]: 2.50
MIC 2: MIC of the substance tested in combination ([2]; combination MEF + LVX): 0.31
MIC 1: MIC of the substance tested alone [2]: 0.62

CC(=O)NC[C@H]1CN(c2ccc(N3CCOCC3)c(F)c2)C(=O)O1 [LYN, linezolid]
MIC 2: MIC of the substance tested in combination ([2]; combination MFL + LYN): 0.31
MIC 1: MIC of the substance tested alone [2]: 0.50

COc1c(N2C[C@@H]3CCCN[C@@H]3C2)c(F)cc2c(=O)c(C(=O)O)cn(C3CC3)c12 [MOX, moxifloxacin]
MIC 2: MIC of the substance tested in combination ([1]; combination MFL + MOX): 0.62
MIC 1: MIC of the substance tested alone [1]: 1.25
MIC 2: MIC of the substance tested in combination ([2]; combination MFL + MOX): 0.31
MIC 1: MIC of the substance tested alone [2]: 0.25

OC(c1cc(C(F)(F)F)nc2c(C(F)(F)F)cccc12)C1CCCCN1 (stereo not drawn) [Mefloquine, mefloquine]
MIC 2: MIC of the substance tested in combination ([1]; combination MEF + CPX): 3.12
MIC 2: MIC of the substance tested in combination ([1]; combination MEF + LVX): 2.50
MIC 2: MIC of the substance tested in combination ([1]; combination MFL + GAT): 0.31
MIC 2: MIC of the substance tested in combination ([1]; combination MFL + INH): 0.015
MIC 2: MIC of the substance tested in combination ([1]; combination MFL + MOX): 0.62
MIC 2: MIC of the substance tested in combination ([1]; combination MFL + OFX): 2.5
MIC 2: MIC of the substance tested in combination ([1]; combination MFL + PYR): 0.62
MIC 2: MIC of the substance tested in combination ([1]; combination MFL + SPR): 0.62
MICcombination ([1]; strain T3609, Tables 1B and 2A): 25 µg/mL
MIC 2: MIC of the substance tested in combination ([2]; combination MEF + CPX): 0.31
MIC 2: MIC of the substance tested in combination ([2]; combination MEF + LVX): 0.31
MIC 2: MIC of the substance tested in combination ([2]; combination MFL + GAT): 0.15
MIC 2: MIC of the substance tested in combination ([2]; combination MFL + INH): 3.12
MIC 2: MIC of the substance tested in combination ([2]; combination MFL + LYN): 0.31
MIC 2: MIC of the substance tested in combination ([2]; combination MFL + MOX): 0.31
MIC 2: MIC of the substance tested in combination ([2]; combination MFL + OFX): 0.62
MIC 2: MIC of the substance tested in combination ([2]; combination MFL + PYR): 0.62
MIC 2: MIC of the substance tested in combination ([2]; combination MFL + SPR): 0.12
MICcombination ([2]; strain T113, Table 2B): 25 µg/mL
cross-resistance (MIC across strains) [3]: no cross-resistance

CC1COc2c(N3CCN(C)CC3)c(F)cc3c(=O)c(C(=O)O)cn1c23 (stereo not drawn) [OFX, ofloxacin]
MIC 2: MIC of the substance tested in combination ([1]; combination MFL + OFX): 2.5
MIC 1: MIC of the substance tested alone [1]: 5.0
MIC 2: MIC of the substance tested in combination ([2]; combination MFL + OFX): 0.62
MIC 1: MIC of the substance tested alone [2]: 1.25

NC(=O)c1cnccn1 [PYR, pyrazinamide]
MIC 1: MIC of the substance tested alone [1]: >100
MIC 1: MIC of the substance tested alone [2]: >100

C[C@@H]1CN(c2c(F)c(N)c3c(=O)c(C(=O)O)cn(C4CC4)c3c2F)C[C@H](C)N1 [SPR, sparfloxacin]
MIC 2: MIC of the substance tested in combination ([1]; combination MFL + SPR): 0.62
MIC 1: MIC of the substance tested alone [1]: 1.25
MIC 2: MIC of the substance tested in combination ([2]; combination MFL + SPR): 0.12
MIC 1: MIC of the substance tested alone [2]: 0.12
